Test results taken from US20250127799A1, “DRUG CONJUGATES FOR BONE MARROW PROTECTION” (priority 2023, published 2025).
Ends that are not written are not given here. Peptide text beside a SMILES is read from it. * marks the point of attachment. X1 = O=C(CCCCCN1C(=O)CC(*)C1=O)NCCCC(O)(P(=O)(O)O)P(=O)(O)O; X2 = O=P(O)(O)SCCNCCCN*

Experiments:
[1] = tested on: Hs578T triple-negative breast cancer cells; assay: CCK-8 cellular proliferation assay, co-culture with chemodrugs; format: cell-based; conditions: for cellular proliferation compared to Non-treatment Control: 72 h
Protocol: In this exemplary representative experiment, a CCK-8 cellular proliferation assay was conducted for Hs578T triple-negative breast cancer cells exposed to the Carboplatin with or without protective agents.
In another exemplary representative chemoprotection experiment, Paclitaxel was used instead of Carboplatin in the CCK-8 cellular proliferation assay for Hs578T cells.

[2] = tested on: human bone marrow mononuclear cells; assay: Colony forming unit assay, protection of cells exposed to carboplatin; format: cell-based; conditions: for CFU counts normalized to untreated cells: 50 μM carboplatin for 4 h
Protocol: In this exemplary representative chemoprotection experiment, a colony forming unit assay was conducted for bone marrow mononuclear cells exposed to carboplatin with or without the pre-treatment with protective agents. In brief, 1.1×10^4 human bone marrow mononuclear cells were suspended in 300 μL culture medium and mixed with 30 μL solutions of PBS (control), Amifostine, WR1065, or Conjugate (with the peptide sequence of CFLG (SEQ ID NO: 18)) at various concentrations. After 2 h of incubation, cells were washed and resuspended in 300 μL culture medium, followed by incubation with 50 μM carboplatin for 4 h. Next, cells were washed and resuspended in the colony forming medium for 14 days. The number of resultant CFU in each group was then determined, and the results were normalized to the group of cells without any treatment. […] In another exemplary representative chemoprotection experiment, Amifostine and Conjugate with the peptide sequence of CFLG (SEQ ID NO: 18) with concentrations ranging from 50 to 1,000 μM were evaluated.

human HSPCs = assay: In vitro radioprotection for human HSPCs (CCK8 viability); conditions: for cellular viability compared to the group receiving no treatment at the same exposure dose: 2-8 Gy; for cellular viability: 50 μM for 4 h
Protocol: In this exemplary representative experiment, human HSPCs were seeded in a 96-well plate at a density of 2.5×10^4 per well (N=6 for each group). Next, cells were treated with a protective drug conjugate having a peptide sequence of CAPIGIAL (SEQ ID NO: 68) with acetylation at the N-terminus (e.g., AcCAPIGIAL; SEQ ID NO: 80) or amifostine alone at the final concentrations ranging from 0 to 100 μM for 4 h, followed by exposure to y-radiation (Cs-137) at 3 or 8 Gy (0.6 Gy/min). Two hours after the irradiation, the culture medium was replaced by a fresh medium. After 24 h of further incubation, a CCK8 assay was applied to evaluate the cell viability.
In this exemplary representative experiment, human HSPCs were seeded in a 96-well plate at a density of 2.5×10^4 per well (N=6 for each group).

[3] = tested on: A549 non-small cell lung cancer cells; assay: CCK-8 cellular proliferation assay, co-culture with chemodrugs; format: cell-based; conditions: for cellular proliferation compared to Non-treatment Control: 72 h
Protocol: In this exemplary representative experiment, a CCK-8 cellular proliferation assay was conducted for A549 non-small cell lung cancer cells exposed to the Carboplatin with or without protective agents.
In another exemplary representative chemoprotection experiment, Paclitaxel was used instead of Carboplatin in the CCK-8 cellular proliferation assay for A549 cells.

[4] = in vivo; cited from earlier work
[5] = biological target: matrix metalloproteinase 9 (MMP9) (Homo sapiens, UniProt P14780); assay: In vitro matrix metalloproteinase-based conjugate cleavage; format: biochemical; conditions: isolated enzyme, MMP9, 37° C., up to 20 h, read-out: T1/2 of cleavage (converted)
Protocol: In this exemplary representative cleavage experiment, a 90 μL stock solution of protective drug conjugate (1 mg/mL) was mixed with 2 μL of matrix metalloproteinase 9 (MMP9) (10 unit/μL) and 8.2 μL of 50 mM CaCl2 solution, followed by incubation at 37° C. for up to 20 h. A 10 μL sample was taken at 0.3, 1, 2, 4, 9, or 20 h for the HPLC analysis. Three conjugates having different peptide sequences (Conjugates 1-3) were used in this test: Conjugate 1-peptide sequence of CPLSLYAL (SEQ ID NO: 65); Conjugate 2-peptide sequence of CPLSLYSL (SEQ ID NO: 66); and Conjugate 3-peptide sequence of CPLGLAL (SEQ ID NO: 67). The concentrations of the conjugate residual in samples were normalized and presented as cleavage ratios.

CD2F1 male mice = assay: In vivo radioprotective effects: 30-day survival after Cobalt-60 gamma irradiation; conditions: for survival rate: 12 h before 9.1 Gy
Protocol: (§1) CD2F1 male mice (N=16) were subcutaneously (sc) injected with a single dose of two different conjugates. For one protective drug conjugate (Conjugate 1), the tested doses were 200, 400, and 800 mg/kg. The structure of Conjugate 1 included amifostine as the protective drug, alendronate as the bone-targeting ligand, and a protease-cleavable peptide having the sequence of CKPLGLWAL (SEQ ID NO: 33) with acetylation at the N-terminus (e.g., AcCKPLGLWAL; SEQ ID NO: 74). […] The irradiated mice were monitored for survival for 30 days post-irradiation. […] For the vehicle control group, the mortalities of mice occurred during 8 to 17 days post-irradiation, and the final survival rate was 6.25% (1 out of 16 survived), indicating significant mortality by gamma-irradiation.
For another protective drug conjugate (Conjugate 2), the tested doses were 250, 500, 600, and 700 mg/kg, and the irradiation was conducted at 24 h post-drug administration. The structure of Conjugate 2 included amifostine as the protective drug, alendronate as the bone-targeting ligand, and a protease-cleavable peptide having the sequence of CPLGLYAL (SEQ ID NO: 29) with acetylation at the N-terminus (e.g., AcCPLGLYAL; SEQ ID NO: 76).
as §1, with “a” for “two different conjugates. For one”, “1), and” for “1),”, “250, 300,” for “200, 400,”, “350” for “800”, “0% (0” for “6.25% (1”
as §1, with “CD2F1 male mice (N=16) were subcutaneously (sc) injected CD2F1” for “CD2F1”, “a” for “two different conjugates. For one”, “1), and” for “1),”, “250, 300,” for “200, 400,”, “350” for “800”
CD2F1 male mice (N=16) were subcutaneously (sc) injected CD2F1 male mice (N=16) were subcutaneously (sc) injected with a single dose of a protective drug conjugate (Conjugate 1), and the tested doses were 50, 100, and 200 mg/kg. The structure of Conjugate 1 included amifostine as the protective drug, alendronate as the bone-targeting ligand, and a protease-cleavable peptide having the sequence of CKPLGLWAL (SEQ ID NO: 33) with acetylation at the N-terminus (e.g., AcCKPLGLWAL; SEQ ID NO: 74). […] The irradiated mice were monitored for survival for […] post-irradiation. […] For the vehicle control group, the mortalities of mice occurred during 8 to 17 days post-irradiation, and the final survival rate was 0% (0 out of 16 survived), indicating significant mortality by gamma-irradiation.
CD2F1 male mice (N=16) were subcutaneously (sc) injected CD2F1 male mice (N=16) were subcutaneously (sc) injected with a single dose of a protective drug conjugate, i.e., Conjugate 3. The tested doses were 250, 300, and 350 mg/kg. […]

[6] = Conjugate cleavage in fresh bone marrow aspirate (HPLC); format: in vitro ADME; conditions: human bone marrow aspirate, same donor, 37° C., up to 6 h
Protocol: The proteolytic cleavage of conjugates determines the therapeutic window, which is controlled by the specific peptide sequence. In a representative cleavage experiment, a […] stock solution of a conjugate (30 mg/mL) was mixed with 90 μL of fresh bone marrow aspirate, followed by incubation at 37° C. for up to 6 h. A 10 μL sample was taken every hour, diluted in 90 μL acetonitrile to precipitate proteins and extract conjugates and cleavage products. The concentrations of the conjugates in samples were determined by HPLC, normalized, and presented as the cleavage ratio.

Chain of matrix metalloproteinase 9 (MMP9) (P14780 94-707, species assumed): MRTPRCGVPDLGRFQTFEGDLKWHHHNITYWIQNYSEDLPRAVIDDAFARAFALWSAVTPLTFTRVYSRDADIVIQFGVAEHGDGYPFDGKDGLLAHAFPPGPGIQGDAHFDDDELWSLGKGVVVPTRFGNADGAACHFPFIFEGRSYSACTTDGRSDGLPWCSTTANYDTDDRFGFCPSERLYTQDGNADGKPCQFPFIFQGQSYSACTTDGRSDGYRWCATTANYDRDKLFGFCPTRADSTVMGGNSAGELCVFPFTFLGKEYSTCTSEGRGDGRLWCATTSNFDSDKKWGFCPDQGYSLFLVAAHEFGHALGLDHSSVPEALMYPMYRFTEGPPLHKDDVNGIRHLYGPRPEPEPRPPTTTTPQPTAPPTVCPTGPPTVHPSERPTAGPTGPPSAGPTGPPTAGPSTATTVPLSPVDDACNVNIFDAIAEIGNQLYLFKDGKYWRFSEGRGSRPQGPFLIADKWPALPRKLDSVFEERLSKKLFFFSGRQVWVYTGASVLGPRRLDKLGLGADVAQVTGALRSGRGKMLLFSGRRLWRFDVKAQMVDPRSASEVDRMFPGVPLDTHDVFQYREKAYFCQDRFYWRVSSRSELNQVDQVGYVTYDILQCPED

With NCCCNCCSP(=O)(O)O [Amifostine] the “toxicity to Hs578T cells” value ([1]; 10 to 200 μM) was “non-toxic”, the “mitigation of Carboplatin-caused CFU reduction” value ([2]; pretreatment 50 to 1,000 μM, dose-dependent (FIG. 8B)) was “significantly mitigated” and the “cellular viability compared to the group receiving no treatment at the same exposure dose” value (human HSPCs; 50 μM) was “much higher cellular viability”. For the same molecule, the “toxicity to A549 cells” value ([3]; 10 to 200 μM) was “non-toxic”, the “bone marrow residence time” value [4] was < 30 min and the pharmacokinetic circulating time [4] was < 8 min.

For N.N.O=C([O-])C1(C(=O)[O-])CCC1.[Pt+2] [Carboplatin], the “cellular proliferation compared to Non-treatment Control” value ([1]; 0.1 mM Carboplatin) was ~35%, the “CFU counts normalized to untreated cells” value ([2]; no protective agent (FIG. 8A)) was ~40% and the “CFU counts normalized to untreated cells” value ([2]; no protective agent (FIG. 8B)) was ~30%. The “cellular proliferation compared to Non-treatment Control” value ([3]; 0.1 mM Carboplatin) was ~30%.

CC(=O)N[C@@H](CSC1CC(=O)N(CCCCCC(=O)NCCCC(O)(P(=O)(O)O)P(=O)(O)O)C1=O)C(=O)N[C@@H](CCCCN)C(=O)N1CCC[C@H]1C(=O)N[C@@H](CC(C)C)C(=O)NCC(=O)N[C@@H](CC(C)C)C(=O)N[C@@H](Cc1c[nH]c2ccccc12)C(=O)N[C@@H](C)C(=O)N[C@@H](CC(C)C)C(=O)NCCCNCCSP(=O)(O)O (stereo partly shown) [Conjugate 1] (Ac-C(X1)KPLGLWAL-X2) showed a half-life at 0.898 mg/mL [5] of ~2 h, a survival rate (CD2F1 male mice; 50 mg/kg sc) of 75% and a survival rate (CD2F1 male mice; 100 mg/kg sc) of 93.75%. For the same molecule, the 30-day survival rate (CD2F1 male mice; 200 mg/kg sc, 6 h before 9.2 Gy) was 68.75%, the survival rate (CD2F1 male mice; 200 mg/kg sc) was 93.75% and the 30-day survival rate (CD2F1 male mice; 250 mg/kg sc, 9 h before 9.2 Gy) was 75%. The 30-day survival rate (CD2F1 male mice; 250 mg/kg sc, 12 h before 9.2 Gy) was 100%, the 30-day survival rate (CD2F1 male mice; 300 mg/kg sc, 9 h before 9.2 Gy) was 87.25% and the 30-day survival rate (CD2F1 male mice; 300 mg/kg sc, 12 h before 9.2 Gy) was 87.5%. The 30-day survival rate (CD2F1 male mice; 350 mg/kg sc, 9 h before 9.2 Gy) was 56.25%, the 30-day survival rate (CD2F1 male mice; 350 mg/kg sc, 12 h before 9.2 Gy) was 81.25% and the 30-day survival rate (CD2F1 male mice; 400 mg/kg sc, 6 h before 9.2 Gy) was 81.25%. The 30-day survival rate (CD2F1 male mice; 800 mg/kg sc, 6 h before 9.2 Gy) was 68.75% and the “time to reach 50% conjugate cleavage” value [6] was 2.4 h.

In the case of CC(=O)O[C@H]1C(=O)[C@@]2(C)[C@H]([C@H](OC(=O)c3ccccc3)[C@]3(O)C[C@H](OC(=O)[C@H](O)[C@@H](NC(=O)c4ccccc4)c4ccccc4)C(C)=C1C3(C)C)[C@]1(OC(C)=O)CO[C@@H]1C[C@@H]2O [Paclitaxel], the “cellular proliferation compared to Non-treatment Control” value ([1]; 5 nM Paclitaxel) is reported as ~35% and the “cellular proliferation compared to Non-treatment Control” value ([3]; 5 nM Paclitaxel) is reported as ~30%.

In the case of “Conjugate (AcCAPIGIAL): protective drug conjugate having peptide sequence CAPIGIAL with acetylation at the N-terminus (SEQ ID NO: 80) (Ac-CAPIGIAL; also: amifostine conjugate (site not given here))”, the cellular viability (human HSPCs; then 2 Gy (FIG. 6B)) is reported as 91.9%, the cellular viability (human HSPCs; then 8 Gy (FIG. 6A)) is reported as 61.1% and the cellular viability (human HSPCs; then 8 Gy (FIG. 6B)) is reported as 59.6%. For the same molecule, the “cellular viability compared to the group receiving no treatment at the same exposure dose” value (human HSPCs; 50 μM) was “much higher cellular viability”, the “cellular viability relative to the control group” value (human HSPCs; 50 μM, 8 Gy) was ~2.3 fold and the “difference in cellular viability between conjugate and amifostine groups” value (human HSPCs; 50 μM, any exposure dose from 2 Gy to 8 Gy) was “no statistical difference”. The “concentration of maximum radioprotective efficacy” value (human HSPCs; 8 Gy, 0-100 μM tested) was 50 µM and the radioprotective effect (human HSPCs; 50 or 100 μM, 3 Gy) was “significant radioprotective effect”.
